# US7811778B2, “Methods of screening for gastrointestinal cancer” (Vanderbilt University, priority 2006, dated 2010)
# Test system: emerging SPEM cells at the bases of fundic glands
# Assay: Gene microarray analysis of laser-capture microdissected chief cells and emerging SPEM cells (Affymetrix Mouse 430 2.0)
# Assay type: in vivo, gastrin-deficient mice
# Description: See Nomura, S., Yamaguchi, H., Wang, T. C., Lee, J. R., and Goldenring, J. R. 2004. Alterations in gastric mucosal lineages induced by acute oxyntic atrophy in wild type and gastrin deficient mice. Amer. J. Physiol. 288:G362-G375. […] To examine this hypothesis more directly, chief cells were microdissected from the very bases of untreated gastrin knockout mice as well as SPEM cells at the base of fundic glands after 1 and 3 days of treatment with DMP-777. Total RNA was prepared from 10,000 cells isolated from 4 different mice in each group. For each of the 12 samples, linear amplification was performed and Affymetrix Mouse 2.0 gene microarrays were probed. […] Second, 30 genes were identified as being involved in G1-S interface transition, including 5 MCM proteins, BRCA1, RIS2, RAD51, TACC3 and ligase1. Immunocytochemistry was used to confirm the upregulation of MCM3 as well as TACC3 in SPEM cells located at the base of fundic glands in mice treated for 1 or 3 days with DMP-777. All of these changes are consistent with alterations moving towards a proliferative phenotype. […] See Nomura, S., Yamaguchi, H., Wang, T. C., Lee, J. R., and Goldenring, J. R. 2004. Alterations in gastric mucosal lineages induced by acute oxyntic atrophy in wild type and gastrin deficient mice. Amer. J. Physiol. 288:G362-G375. Thus the up-regulation of proteins involved in the G1/S interface is also consistent with transdifferentiation of chief cells into SPEM, since such changes would require a global transcriptome, alterations that would require unwinding of DNA and changes in gene activation including alteration in DNA methylation.
# Gastrin-deficient mice were constructed by targeted disruption of the gastrin gene and were maintained on a C57BL/6 background (Nomura S, Yamaguchi H, Wang T C, Lee J R, Goldenring J R. Alterations in gastric mucosal lineages induced by acute oxyntic atrophy in wild type and gastrin deficient mice. Amer.J.Physiol. 2004; In Press). Mice were treated for 1 or 3 days with oral gavage administration of DMP-777 (a gift of DuPont Pharmaceuticals), formulated in 0.5% methylcellulose (administered orally as a gavage once daily at 350 mg/kg/day). Untreated mice were utilized as controls. Mice were sacrificed and their stomachs were excised and opened along the greater curvature and processed for frozen sections for laser capture microdissection. From the untreated Gastrin-deficient mice, chief cells were microdissected from the bases of gastric glands. The emerging SPEM cells were microdissected from the bases of fundic glands of DMP-777-treated Gastrin-deficient mice after 1 or 3 days of oral drug administration. Cell collections (10,000 cells) and extractions of total RNA were performed as previously described (Nomura S, Baxter S, Yamaguchi T, Leys C, Vartapetian A B, Fox J G, Lee J R, Wang T C, Goldenring J R. Relationship of spasmolytic polypeptide expressing metaplasia (SPEM) to pre-neoplasia in H. felis-infected mice. Gastroenterology 2004; 127:582-594).
# Total RNA from microdissected cells were reverse transcribed and amplified through two rounds of linear amplification using a Nugen Ovation kit to amplify and label 10-20 ng of RNA. The resulting single-strand cDNA product was purified by binding to and elution from a Qiagen QIAQUICK® column. The cDNA product was then quantitated and 2.2 μg of the fragmented, labeled product was hybridized to Affymetrix Mouse 430 2.0 microarrays overnight, with staining and scanning performed the next day. Gene expression was analyzed among microdissected cells from 4 untreated gastrin-deficient mice 4 mice treated with DMP-777 for one day and 4 mice treated with DMP-777 for three days. The raw gene expression data (.cel files) were converted to expression values using the Affy function in R (see the Bioconductor website). […]
# [1] = gastrin-deficient mice, 350 mg/kg/day oral, 1 day, microdissected SPEM cells vs untreated chief cells
# [2] = gastrin-deficient mice, 350 mg/kg/day oral, 1 day, microdissected SPEM cells vs untreated chief cells, first line for this gene
# [3] = gastrin-deficient mice, 350 mg/kg/day oral, 1 day, microdissected SPEM cells vs untreated chief cells, second line for this gene
# [4] = gastrin-deficient mice, 350 mg/kg/day oral, 3 days, microdissected SPEM cells vs untreated chief cells
# [5] = gastrin-deficient mice, 350 mg/kg/day oral, 3 days, microdissected SPEM cells vs untreated chief cells, first line for this gene
# [6] = gastrin-deficient mice, 350 mg/kg/day oral, 3 days, microdissected SPEM cells vs untreated chief cells, second line for this gene
compound,measurement,setting,value
CCC[C@@H](NC(=O)N1C(=O)C(CC)(CC)[C@@H]1Oc1ccc(C(=O)N2CCN(C)CC2)cc1)c1ccc2c(c1)OCO2 [DMP-777],"Top2a transcript, 1 DAY DMP-777 vs CONTROL",[1],7.3
same,"Trip13 transcript, 1 DAY DMP-777 vs CONTROL",[1],10.3
same,"Uhrf1 transcript, 1 DAY DMP-777 vs CONTROL",[1],35.3
same,"WDNM1 transcript, 1 DAY DMP-777 vs CONTROL",[1],5.2
same,"Wfdc2 transcript, 1 DAY DMP-777 vs CONTROL",[1],8.9
same,"Mcm5 * transcript, 1 DAY DMP-777 vs CONTROL",[2],18.1
same,"Mcm10 * transcript, 1 DAY DMP-777 vs CONTROL",[2],12.2
same,"Prc1 transcript, 1 DAY DMP-777 vs CONTROL",[2],7.5
same,"Rad51ap1 * transcript, 1 DAY DMP-777 vs CONTROL",[2],12.9
same,"Ris2* transcript, 1 DAY DMP-777 vs CONTROL",[2],21.5
same,"Mcm5 * transcript, 1 DAY DMP-777 vs CONTROL",[3],13.9
same,"Mcm10 * transcript, 1 DAY DMP-777 vs CONTROL",[3],6.7
same,"Prc1 transcript, 1 DAY DMP-777 vs CONTROL",[3],7.0
same,"Rad51ap1 * transcript, 1 DAY DMP-777 vs CONTROL",[3],8.7
same,"Ris2* transcript, 1 DAY DMP-777 vs CONTROL",[3],7.3
same,"5ssca1 transcript, 3 DAYS DMP-777 vs CONTROL",[4],12.3
same,"Atf3 transcript, 3 DAYS DMP-777 vs CONTROL",[4],10.1
same,"Cdc2a transcript, 3 DAYS DMP-777 vs CONTROL",[4],7.0
same,"Cdca1 transcript, 3 DAYS DMP-777 vs CONTROL",[4],8.1
same,"Cdca5 transcript, 3 DAYS DMP-777 vs CONTROL",[4],36.1
same,"CdcaS transcript, 3 DAYS DMP-777 vs CONTROL",[4],8.7
same,"Cenph transcript, 3 DAYS DMP-777 vs CONTROL",[4],10.7
same,"Clspn transcript, 3 DAYS DMP-777 vs CONTROL",[4],8.5
same,"Crip1 transcript, 3 DAYS DMP-777 vs CONTROL",[4],42.6
same,"Dcc1 transcript, 3 DAYS DMP-777 vs CONTROL",[4],10.0
same,"Ereg transcript, 3 DAYS DMP-777 vs CONTROL",[4],28.9
same,"ExoscB transcript, 3 DAYS DMP-777 vs CONTROL",[4],6.7
same,"Fignl1 transcript, 3 DAYS DMP-777 vs CONTROL",[4],6.6
same,"Gadd45b transcript, 3 DAYS DMP-777 vs CONTROL",[4],5.0
same,"Il1m transcript, 3 DAYS DMP-777 vs CONTROL",[4],18.5
same,"Lgals3 transcript, 3 DAYS DMP-777 vs CONTROL",[4],153.3
same,"Lig1 transcript, 3 DAYS DMP-777 vs CONTROL",[4],9.6
same,"Mcm6 transcript, 3 DAYS DMP-777 vs CONTROL",[4],36.4
same,"Ncapg transcript, 3 DAYS DMP-777 vs CONTROL",[4],3.2
same,"Pole transcript, 3 DAYS DMP-777 vs CONTROL",[4],11.3
same,"Rad51 transcript, 3 DAYS DMP-777 vs CONTROL",[4],10.5
same,"Rad54b transcript, 3 DAYS DMP-777 vs CONTROL",[4],6.6
same,"Rfc3 transcript, 3 DAYS DMP-777 vs CONTROL",[4],6.1
same,"Rfc4 transcript, 3 DAYS DMP-777 vs CONTROL",[4],8.4
same,"Rrm1 transcript, 3 DAYS DMP-777 vs CONTROL",[4],8.4
same,"Tk1 transcript, 3 DAYS DMP-777 vs CONTROL",[4],11.5
same,"Top2a transcript, 3 DAYS DMP-777 vs CONTROL",[4],6.4
same,"Trip13 transcript, 3 DAYS DMP-777 vs CONTROL",[4],8.6
same,"Uhrf1 transcript, 3 DAYS DMP-777 vs CONTROL",[4],8.8
same,"WDNM1 transcript, 3 DAYS DMP-777 vs CONTROL",[4],345.9
same,"Wfdc2 transcript, 3 DAYS DMP-777 vs CONTROL",[4],67.5
same,"Mcm5 * transcript, 3 DAYS DMP-777 vs CONTROL",[5],36.2
same,"Mcm10 * transcript, 3 DAYS DMP-777 vs CONTROL",[5],38.3
same,"Prc1 transcript, 3 DAYS DMP-777 vs CONTROL",[5],6.9
same,"Rad51ap1 * transcript, 3 DAYS DMP-777 vs CONTROL",[5],6.1
same,"Ris2* transcript, 3 DAYS DMP-777 vs CONTROL",[5],41.3
same,"Mcm5 * transcript, 3 DAYS DMP-777 vs CONTROL",[6],18.2
same,"Mcm10 * transcript, 3 DAYS DMP-777 vs CONTROL",[6],10.1
same,"Prc1 transcript, 3 DAYS DMP-777 vs CONTROL",[6],7.4
same,"Rad51ap1 * transcript, 3 DAYS DMP-777 vs CONTROL",[6],7.4
same,"Ris2* transcript, 3 DAYS DMP-777 vs CONTROL",[6],10.3
same,increase in the expression of the HE4 gene,"gene microarray, DMP-777-treated gastrin knockout mice vs untreated",greater than 16 fold
